Values joined by “and” are separate entries in the source; they are usually repeats but may differ in a detail not shown here. Identical values can stand only once.
Key:
5HT3A receptors = biological target: T1, 5HT3A receptors (Mus musculus, UniProt P23979); experiment: Intact cell competitive radioligand binding assay ([3H]-granisetron, SPA), LGIC-CNiFERs; conditions: >10 = did not pass initial screen at 10 μM; read-out: Kd ± SD, 5HT3A
T1 construct: expressed in transfected cells; host or cells: HEK293 cells co-expressing TN-XXL
T1 sequence (P23979 24-489): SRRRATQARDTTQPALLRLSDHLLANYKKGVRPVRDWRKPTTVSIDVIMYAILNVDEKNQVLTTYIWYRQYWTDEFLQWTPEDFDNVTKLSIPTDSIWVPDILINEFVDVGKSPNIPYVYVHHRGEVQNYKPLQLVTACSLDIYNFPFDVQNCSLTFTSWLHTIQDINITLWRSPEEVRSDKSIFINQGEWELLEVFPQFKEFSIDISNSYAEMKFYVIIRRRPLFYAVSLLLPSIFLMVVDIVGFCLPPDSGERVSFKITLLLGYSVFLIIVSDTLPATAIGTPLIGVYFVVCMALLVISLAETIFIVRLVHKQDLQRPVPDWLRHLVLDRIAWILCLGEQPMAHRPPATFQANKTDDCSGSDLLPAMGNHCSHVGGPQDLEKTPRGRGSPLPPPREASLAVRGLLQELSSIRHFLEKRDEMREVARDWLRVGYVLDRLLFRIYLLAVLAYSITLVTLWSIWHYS

[1] = test system: scopolamine-induced amnesic mice; experiment: Modified Y-maze test; type: in vivo; conditions: for Unfamiliar arm exploration / cognitive deficit, modified Y-maze vs scopolamine-treated group: i.p. 1 h before, scopolamine 1 mg/kg, doses as in the sentence; for Fold lower effective dose than PNU-282987, modified Y-maze: mouse, in vivo; for Minimum effective dose, Modified Y-maze: scopolamine induced amnesia model, ICR mice, i.p.
Method: The modified Y-maze test was performed to evaluate spatial working memory. The experiment was divided into 3 sessions; (i) IND8 at 5, 10, and 50 μmol/kg or 1.5, 2.9, and 14.7 mg/kg doses, (ii) QND8 at 5, 10, and 50 μmol/kg or 1.4, 2.7, 13.5 mg/kg doses, and (iii) IND8 and QND8 at dose of 25 μmol/kg or 7.3 and 6.8 mg/kg, respectively and PNU-282987 at […] or 3, 10 mg/kg doses.
FIG. 21 illustrates the percentage of unfamiliar arm exploration in modified Y-maze of IND8 (FIG. 21A), QND8 (FIG. 21B), and IND8, QND8, PNU-282987 (FIG. 21C). IND8, QND8, PNU-282987, vehicle (15% Tween80, SH) and tacrine (TC) were injected 1 h and scopolamine (SC) 30 min before sample phase, respectively. Each mouse was placed at the end of one arm and allowed to access 2 arms of Y-maze for 5 min in sample phase. After a 30 min period, the mouse was allowed to explore 3 arms for 5 min. The number of entries for each arm was recorded and the percentage of unfamiliar arm exploration was calculated. Data represented in means±standard errors (SE).
Male ICR mice (6-weeks of age) were housed in 5 per cage with free access to food and tap water under 12 h light and dark cycle (light on 6:00 to 18:00) in a temperature and humidity controlled room. They were acclimated in a laboratory at least 7 days prior to starting experiments. The experimental protocols were approved by the Animal Care and Use Committee of KhonKaen University, Thailand.
Tacrine hydrochloride (Sigma-Aldrich, St. Louis, Mo.), PNU-282987 hydrochloride (Alamone, Jerusalem, Israel) and test compounds were prepared as suspensions by using 15% tween 80 in distilled water as a vehicle, whereas scopolamine hydrochloride (Sigma-Aldrich, St. Louis, Mo.) and methyllycaconitine citrate (MLA) (Abcam, Cambridge, England) were prepared as a solution by dissolving with 0.9% normal saline solution (NSS). All compounds were administered by intraperitoneal (i.p.) injection in the amount of 5 mL/kg. Test compounds were injected 1 h and scopolamine was administered 30 min before the experiments, whereas MLA was injected 5 min before the test compounds.
Amnesia was induced pharmacologically in mice via scopolamine injection (single dose) for 30 min prior to start the experiments. They were divided into vehicle group: receiving 15% tween 80 and 0.9% NSS, amnesia group: receiving scopolamine 1 mg/kg, standard positive control group receiving tacrine 1 mg/kg, and test group: receiving IND8, QND8 at dose 5, 10, 25, 50 μmol/kg, or PNU-282987 3, 10 mg/kg, single dose. All mice were acclimated in an experimental room at least 30 min before the experiments.
The maze in this experiment is the same apparatus using in locomotor activity test except there is the black partition to close one of three arms. The mice were randomly separated into different treatment groups. They were injected with test compounds and scopolamine at 1 h and 30 min, respectively, before the sample phase. In this phase which one arm of Y-maze was closed by the black partition, each mouse was placed at the end of one arm and allowed to move through 2 arms for 5 min to get familiar with the two opened arms. After 30 min of resting, all arms were opened and the mouse was allowed to move freely through all 3 arms. The maze area and the partition were cleaned with 70% ethanol between each experiment to remove olfactory cues. The number of entries in each arm was counted visually if mice accessed into each arm at least 10 cm. The percentage of unfamiliar arm exploration was calculated as following equation: […]

[2] = biological target: α7/5HT3A chimera receptor (hα7/m5HT3A), used for α7-nAChRs (UniProt P23979+P36544, M226I/T225I); experiment: Intact cell competitive radioligand binding assay ([3H]-(±)-epibatidine, SPA), LGIC-CNiFERs; conditions: read-out: Kd ± SD, α7-nAChRs; >10 = did not pass initial screen at 10 μM
Sequence of α7/5HT3A chimera receptor (hα7/m5HT3A), used for α7-nAChRs (P36544+P23979 fused P36544:T225I/P36544:M226I): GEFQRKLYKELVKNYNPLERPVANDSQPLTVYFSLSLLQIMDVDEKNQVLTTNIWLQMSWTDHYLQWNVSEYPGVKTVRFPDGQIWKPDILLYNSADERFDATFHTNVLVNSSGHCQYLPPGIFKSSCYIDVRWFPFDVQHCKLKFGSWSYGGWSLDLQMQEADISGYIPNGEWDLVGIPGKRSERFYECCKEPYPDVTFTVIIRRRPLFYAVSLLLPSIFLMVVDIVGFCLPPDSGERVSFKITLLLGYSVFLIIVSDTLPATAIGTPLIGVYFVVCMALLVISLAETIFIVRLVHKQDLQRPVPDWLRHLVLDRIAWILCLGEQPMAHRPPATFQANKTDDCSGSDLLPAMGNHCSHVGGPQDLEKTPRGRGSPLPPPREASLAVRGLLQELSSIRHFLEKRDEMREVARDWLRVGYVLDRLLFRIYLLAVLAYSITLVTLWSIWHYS
Method: All synthesized compounds were screened for the binding potential with cell based neurotransmitter fluorescent engineered reporters (CNiFERs) expressed α7-nAChRs, α4β2-nAChRs, and 5HT3A receptors. The whole cell binding assay was performed by competitive radioligand binding assay (RBA) using [^3H]-(±)-epibatidine for α7- and α4β2-nAChRs and [^3H]-granisetron for 5HT3A receptors. […] Compounds at 10 μM concentration that dissociated [^3H]-(±)-epibatidine or [^3H]-granisetron binding to LGIC-CNiFERs more than 50% were further determined over a range of concentrations for Kd values.
Cell lines expressing specific subtypes of receptors and a genetically encoded fluorescence resonance energy transfer (FRET)-based calcium sensor (TN-XXL) were prepared^29. The human α7-nAChRs and α4β2-nAChRs were expressed in HEKtsA201 cells, whereas hα7/m5HT3A chimeric receptors and mouse 5HT3A receptors were expressed in HEK293 cells. Cells were cultured in DMEM (Corning, Cellgro, Manassas, Va.) supplemented with 10% FBS (Gibco, Life Technologies, Grand Island, N.Y.) and 1% glutamine (Gibco, Life Technologies, Grand Island, N.Y.) and incubated at 37° C. with 10% CO2.
Cell based neurotransmitter fluorescent engineered reporters (CNiFERs) expressing Ca^2+ permeable LGIC receptors were used to determine the Kd values of the compounds. Cells were harvested by centrifugation (Beckman coulter, Brea, Calif.) at 500 rpm for 5 min, and then mixed and incubated on ice for 30 min, after counting, with Wheat Germ Agglutinin SPA beads (20 mg/mL) (Perkin Elmer, Waltham, Mass.) in Hank's Balanced Salt Solution (HBSS) (Gibco, Life Technologies, Grand Island, N.Y.) at the specified concentrations: 1) hα7/m5HT3A chimera-TN-XXL: 200K cells/well, 1 mg/mL SPA beads 2) hα4β2-TN-XXL: 100K cells/well, 0.5 mg/mL SPA beads, and 3) m5HT3A-TN-XXL: 100K cells/well, 1 mg/mL SPA beads. The compounds were initially screened at 10 μM final concentration. Nonspecific binding was measured by using 100 μM of MLA (Tocris Bioscience, Bristol, UK) for α7/5HT3A chimeric receptors, 10 μM of varenicline (Tocris Bioscience, Bristol, UK) for α4β2-nAChR, and 300 nM of tropisetron (Tocris Bioscience, Bristol, UK) for 5HT3A receptors. After that, the radioactive ligands were added at nM final concentration of [^3H]-(±)-epibatidine for α7/5HT3A chimeric receptors, 5 nM of [^3H]-(±)-epibatidine for α4β2-nAChR, and 10 nM of [^3H]-granisetron for 5HT3A receptors. The mixtures were measured on the Wallac 1450 MicroBeta® Trilux with 1 h intervals for a total of measurements. […] Mean Kd values and standard deviations were calculated from at least 3 independent experiments.

Structure (SMILES) | Kd (5HT3A receptors) | Unfamiliar arm exploration / cognitive deficit, modified Y-maze vs scopolamine-treated group [1] | Fold lower effective dose than PNU-282987, modified Y-maze [1] | Minimum effective dose, Modified Y-maze [1] [µmol/kg] | Kd [2]
c1cc2cc(-c3cn(C4CN5CCC4CC5)nn3)ccc2[nH]1 (stereo not shown) [IND8, 5-((Quinuclid-3-yl)-1H-1,2,3-triazol-4-yl)-1H-indole] | 0.05 µM and 0.052 µM | reversed the cognitive deficit induced by scopolamine | seven-fold | 5 | 0.12 µM
O=C(N[C@H]1CN2CCC1CC2)c1ccc(Cl)cc1 [PNU-282987, reference compound] | > 10 µM |  |  | 33 | 0.27 ± 0.14 µM
Oc1ccc(-c2cn(C3CN4CCC3CC4)nn2)cc1 (stereo not shown) [QND8, 3-(4-hydroxyphenyl-1,2,3-triazol-1-yl) quinuclidine] | 0.54 ± 0.05 µM | improved the cognitive deficit significantly only at the 2.7 mg/kg dose | four-fold | 10 | 0.08 µM and 0.081 µM
